Test results reported in ChEMBL document CHEMBL5042495, “Lead Optimization of Influenza Virus RNA Polymerase Inhibitors Targeting PA-PB1 Interaction” (J Med Chem, 2022).
Calls of active or inactive are those of the source. No cut-off for these calls is given here.

Legend:
HEK293T [1] = assay: (§1) Inhibition of Influenza A virus RNA dependent RNA polymerase activity in HEK293T cells co-transfected with pPoll/NP(0)GFP(0) after 2 hrs post-transfection followed by compound addition incubated for 22 hrs by fluorescence microscopic analysis; type: cell-based
HEK293T [2] = assay: as §1, with “pPoll/NP(0)GFP(0) assessed as reduction on number of GFP positive cells at 10 uM” for “pPoll/NP(0)GFP(0)”; type: cell-based
Influenza A virus [3] = assay: Antiviral activity against Influenza A virus A/Virginia/ATCC2/2009(H1N1) strain infected in MDCK cells assessed as reduction in viral infection incubated for 48 hrs by crystal violet staining based assay; type: functional, organism-based
Influenza A virus [4] = assay: Antiviral activity against Influenza A virus A/California/7/2009(H1N1) strain infected in MDCK cells assessed as reduction in viral infection incubated for 48 hrs by crystal violet staining based assay; type: functional, organism-based
[5] = Cytotoxicity in dog MDCK cells assessed as reduction in cell viability incubated for 48 hrs by crystal violet staining based assay; type: toxicity, Canis lupus familiaris
Influenza A virus [6] = assay: Antiviral activity against Influenza A virus A/Aichi/8/68(H3N2) strain infected in MDCK cells assessed as reduction in viral infection incubated for 48 hrs by crystal violet staining based assay; type: functional, organism-based
Influenza A virus [7] = assay: Antiviral activity against Influenza A virus A/Puerto Rico/8/34(H1N1) strain infected in MDCK cells assessed as reduction in viral infection incubated for 48 hrs by crystal violet staining based assay; type: functional, organism-based
Influenza A virus [8] = assay: Antiviral activity against Influenza A virus A/WSN/33(H1N1) strain infected in MDCK cells assessed as reduction in viral infection incubated for 48 hrs by crystal violet staining based assay; type: functional, organism-based
Influenza A virus [9] = assay: Antiviral activity against Influenza A virus B/Lee/40(type B) strain infected in MDCK cells assessed as reduction in viral infection incubated for 48 hrs by crystal violet staining based assay; type: functional, organism-based
HEK293T [10] = assay: Inhibition of Influenza A virus RNA dependent RNA polymerase activity in HEK293T cells co-transfected with pPoll/NP(0)GFP(0) at 10 to 40 uM after 2 hrs post-transfection followed by compound addition incubated for 22 hrs by fluorescence microscopic analysis; type: cell-based; details: dose 10-40 µM
HEK293T [11] = assay: as §1, with “pPoll/NP(0)GFP(0) assessed as reduction on number of GFP positive cells at 10 nM” for “pPoll/NP(0)GFP(0)”; type: cell-based

Compound | CC50 at 48 h [5] [µM] | EC50 (Influenza A virus [8]) [nM] | also measured
COc1ccc2[nH]c(=O)c(CN(Cc3ccc(C(C)(C)C)cc3)C(C)c3ccc(OC)c(Cl)c3)cc2c1 (stereo unspecified) | > 10 | 61 | inhibition (HEK293T [1]): Active; inhibition (HEK293T [2]): Active; EC50 (Influenza A virus [3]): 77 nM; EC50 (Influenza A virus [4]): 230 nM; EC50 (Influenza A virus [6]): 85 nM; EC50 (Influenza A virus [7]): 72 nM; EC50 (Influenza A virus [9]): 79 nM
CCc1ccc2[nH]c(=O)c(CN(Cc3ccc(C(C)(C)C)cc3)[C@@H](C)c3ccc(OC)cc3)cc2c1 | > 5 | 103 | inhibition (HEK293T [1]): Active; inhibition (HEK293T [2]): Active; inhibition (HEK293T [10]): Dose-Dependent Effect
CCOC(=O)C1=C[C@@H](OC(CC)CC)[C@H](NC(C)=O)[C@@H](N)C1 [OSELTAMIVIR PHOSPHATE] | – | 2010 | EC50 (Influenza A virus [3]): 18500 nM; EC50 (Influenza A virus [4]): 4620 nM; EC50 (Influenza A virus [6]): 2250 nM; inhibition (HEK293T [10]): inactive; EC50 (Influenza A virus [7]): 11600 nM
O=C1c2c(O)c(=O)ccn2N([C@@H]2c3ccccc3SCc3c2ccc(F)c3F)[C@@H]2COCCN12 [BALOXAVIR] | – | 3 | EC50 (Influenza A virus [3]): 6 nM; EC50 (Influenza A virus [4]): 4 nM; EC50 (Influenza A virus [6]): 4 nM; inhibition (HEK293T [11]): Active; EC50 (Influenza A virus [7]): 7 nM; EC50 (Influenza A virus [9]): 170 nM
NC(=O)c1nc(F)cnc1O [FAVIPIRAVIR] | – | 1900 | EC50 (Influenza A virus [4]): 2900 nM
C[C@@H](c1ccc(OC(F)(F)F)cc1)N(Cc1ccc(C(C)(C)C)cc1)Cc1cc2cc(C3CC3)ccc2[nH]c1=O | > 10 | 77 | inhibition (HEK293T [1]): Active; inhibition (HEK293T [2]): Active; EC50 (Influenza A virus [3]): 64 nM; EC50 (Influenza A virus [4]): 270 nM; EC50 (Influenza A virus [6]): 72 nM; EC50 (Influenza A virus [7]): 67 nM; EC50 (Influenza A virus [9]): 230 nM
Cc1ccc2cc(CN(Cc3ccc(F)cc3)Cc3ccc(C(F)(F)F)cc3)c(=O)[nH]c2c1 | > 33 | 2100 | –
CC(c1ccc(N(C)C)c(Cl)c1)N(Cc1ccc(C(C)(C)C)cc1)Cc1cc2cc(C3CC3)ccc2[nH]c1=O (stereo unspecified) | > 10 | 90 | –
COc1ccc([C@H](C)N(Cc2ccc(C(C)(C)C)cc2)Cc2cc3cc(C4CC4)ccc3[nH]c2=O)cc1 | > 10 | 160 | –
COc1ccc(CN(Cc2ccc(C(C)(C)C)cc2)Cc2cc3cc(C)ccc3[nH]c2=O)cc1 | > 10 | 330 | –
CCC(C)(C)n1nnnc1C(c1cc2cccc(C)c2[nH]c1=O)N(Cc1ccccc1)Cc1ccc(F)cc1 (stereo unspecified) | > 83 | 570 | inhibition (HEK293T [10]): Dose-Dependent Effect
Cc1ccc2[nH]c(=O)c(CN(Cc3ccc(F)cc3)Cc3ccc(C(C)(C)C)cc3)cc2c1 | > 27 | 390 | –
Cc1ccc2[nH]c(=O)c(CN(Cc3ccc(SC(F)(F)F)cc3)Cc3ccc(C(C)(C)C)cc3)cc2c1 | > 5 | 1300 | –
Cc1ccc2cc(CN(Cc3ccc(C(C)C)cc3)Cc3cccc(F)c3)c(=O)[nH]c2c1 | > 33 | 2100 | –
Cc1ccc2[nH]c(=O)c(CN(Cc3ccc(C#N)cc3)Cc3ccc(C(C)(C)C)cc3)cc2c1 | > 5 | 500 | –
Cc1ccc2[nH]c(=O)c(CN(Cc3ccc(OC(F)(F)F)cc3)Cc3ccc(C(C)(C)C)cc3)cc2c1 | > 5 | 490 | –

Compound | CC50 at 48 h [5] [µM] | EC50 (Influenza A virus [8]) [nM] | also measured
COc1ccc2[nH]c(=O)c(CN(Cc3ccc(N(C)C)cc3)Cc3ccc(C(C)(C)C)cc3)cc2c1 | 8.5 | 460 | –
C[C@@H](c1ccc(OC(F)(F)F)cc1)N(Cc1ccc(C(F)(F)F)c(Cl)c1)Cc1cc2cc(C3CC3)ccc2[nH]c1=O | 7.9 | 120 | –
Cc1ccc2[nH]c(=O)c(CN(Cc3ccc(F)cc3)Cc3cccc4ccccc34)cc2c1 | > 5 | 1800 | –
Cc1ccc2[nH]c(=O)c(CN(Cc3ccc(C(C)(C)C)cc3)Cc3ccc(N(C)C)c(Cl)c3)cc2c1 | > 10 | 220 | –
Cc1ccc2[nH]c(=O)c(CN(Cc3ccc(C(C)(C)C)cc3)C(C)c3ccc(N(C)C)c(Cl)c3)cc2c1 (stereo unspecified) | 9.8 | 120 | –
C[C@@H](c1ccc(OC(F)(F)F)cc1)N(Cc1ccc(C(C)(C)C)cc1)Cc1cc2cc(C(F)(F)F)ccc2[nH]c1=O | > 10 | 260 | –
Cc1ccc2cc(CN(Cc3ccc(F)cc3)Cc3ccc(C(C)C)cc3)c(=O)[nH]c2c1 | > 33 | 2000 | –
COc1ccc(C(C)N(Cc2ccc(C(C)(C)C)cc2)Cc2cc3cc(Br)ccc3[nH]c2=O)cc1Cl (stereo unspecified) | > 10 | 530 | –
CC(C)c1ccc2[nH]c(=O)c(CN(Cc3ccc(F)cc3)Cc3ccc(C(C)(C)C)cc3)cc2c1 | 7.9 | 1900 | –
CCc1ccc(CN(Cc2ccc(F)cc2)Cc2cc3ccc(C)cc3[nH]c2=O)cc1 | > 33 | 1800 | –
CC(C)(C)c1ccc(CN(Cc2ccc(C(F)(F)F)c(Cl)c2)Cc2cc3cc(C4CC4)ccc3[nH]c2=O)cc1 | > 10 | 630 | –
COc1ccc(C(C)N(Cc2ccc(C(C)(C)C)cc2)Cc2cc3cc(C)ccc3[nH]c2=O)cc1 (stereo unspecified) | > 5 | 260 | –
COc1ccc([C@H](C)N(Cc2ccc(OC(F)(F)F)cc2)Cc2cc3ccccc3[nH]c2=O)cc1 | > 10 | 1900 | –
Cc1ccc2[nH]c(=O)c(CN(Cc3ccc(OC(C)C)cc3)Cc3ccc(C(C)(C)C)cc3)cc2c1 | > 5 | 1500 | –
Cc1ccc2cc(CN(Cc3ccc(C(C)(C)C)cc3)CC3CCCCC3)c(=O)[nH]c2c1 | > 10 | 1900 | –
COc1ccc2[nH]c(=O)c(CN(Cc3ccc(C(C)(C)C)cc3)Cc3ccc(C(F)(F)F)c(Cl)c3)cc2c1 | > 10 | 85 | –
